Laboratory results taken from patent US12491262B2, “Gene delivery agents” (TIBA Biotech LLC, priority 2023, dated 2025).

Experiments:
[1] = Hydrodynamic size measurement by dynamic light scattering (Zetasizer); format: physicochemical; conditions: for Z average: DOPE, DMG-PEG 2000 and SEAP Replicon RNA; for Z average (size of strongest intensity): FIG. 4; for Z average (size of strongest intensity) / polydispersity index: compound 8 and SEAP RNA, hand mixing
Experimental: Additionally, with reference to FIG. 2, nanoparticles were formulated by mixing 21 μl of an ethanol phase containing compound 5 or compound 6, cholesterol, DOPE, and DMG PEG 2000 (PEG-lipid, Avanti Polar Lipids) at molar ratio of 1:2:1.5:0.0375 with 63 μl of SEAP Replicon RNA encoding secreted embryonic alkaline phosphatase (diluted with UltraPure, DNase/RNase-free, endotoxin-free distilled water (Invitrogen) and sterile 100 mM (pH 5) citrate buffer to a final citrate concentration of 10 mM. The resulting nanoparticles contained 4:1 mass ratio of compound 5 or compound 6 to RNA. Formulations were diluted 100-fold for analysis of particle size distribution, Z-average, and derived count rate using a Zetasizer Nano ZS (Malvern Panalytical).
The “Z average” of the nanoparticle composition containing compound 5 or compound 6, cholesterol, DOPE, DMG-PEG 2000 and SEAP Replicon RNA as function of size was determined by dynamic light scattering (DLS). […] Referring to FIG. 2, the size distributions were characterized with a low polydispersity index, indicating a relatively monodisperse size.
Reference to FIG. 4, nanoparticles were formulated by mixing 21 μl of an ethanol phase containing Compound 8, cholesterol, DOPE, and DMG PEG 2000 (PEG-lipid, Avanti Polar Lipids) at molar ratio of 1:2:1.5:0.0375 with 63 μl of Replicon RNA encoding secreted embryonic alkaline phosphatase (SEAP) diluted with UltraPure, DNase/RNase-free, endotoxin-free distilled water (Invitrogen) and sterile 100 mM (pH 5 or pH3) citrate buffer to a final citrate concentration of 10 mM. The derived NPs were characterized with a Zetasizer NanoZS machine (Malvern). The size distributions were characterized by a single peak with a low polydispersity index.
FIG. 4 illustrates distribution of the nanoparticle composition measured as the intensity (Z average) based on size (d.nm; diameter in nm) of the nanoparticles. Referring to FIG. 4, the “Z average” of the nanoparticle composition containing compound 8 and SEAP RNA as function of size was determined by dynamic light scattering (DLS). […] The polydispersity index of nanoparticles formulated with buffer pH 3 and pH 5 is 0.13 and 0.11, respectively, indicating a relatively monodisperse size.
(§1) Nanoparticles containing the compound 8:cholesterol:DOPE:DMG-PEG2k at molar ratios of 1:2:1.5:0.0375 were formulated using NanoAssemblr Benchtop (Precision NanoSystems Inc, Vancouver, BC, Canada)). RNA was diluted with Dnase/Rnase-Free, endotoxin free distilled water and sterile citrate buffer to a final desired pH. Total flow rate was maintained at 8 mL per min at a 3:1 ratio of aqueous to organic phase for formulating on the Benchtop. Using glassware depyrogenated by heating at 250° C. for 24 hours, nanoparticles were dialyzed against sterile, endotoxin-free PBS using 20,000 molecular weight cutoff dialysis. Dialyzed nanoparticles were sterile filtered using 0.2 micron poly(ether sulfone) filters and characterized with a Zetasizer NanoZS machine (Malvern). The size distributions were characterized by a single peak with a low polydispersity index. Encapsulation efficiency was measured to be 89% for the nanoparticle composition containing compound 8 and Replicon SEAP RNA (formulated at pH 5) using Ribogreen® assay.
The “Z average” of the nanoparticle composition containing compound 8, cholesterol, DOPE, DMG-PEG 2000 and SEAP Replicon RNA as function of size was determined by dynamic light scattering (DLS). […] Referring to Table 2, the size distributions were characterized with a low polydispersity index, indicating a relatively monodisperse size.
Nanoparticles containing the compound 8 or compound 9:cholesterol:DOPE DMG-PEG2k at molar ratios of 1:2:1.5:0.0375 were formulated using NanoAssemblr Benchtop (Precision NanoSystems Inc, Vancouver, BC, Canada)). RNA was diluted with Dnase/Rnase-Free, endotoxin free distilled water and sterile citrate buffer to a final desired pH. […]

[2] = as above; format: physicochemical; conditions: cholesterol
[3] = Encapsulation efficiency by Ribogreen assay; format: physicochemical; conditions: formulated at pH 5
Text: As used herein, “encapsulated” can refer to a nanoparticle that provides an active agent or therapeutic agent, such as a nucleic acid (e.g., a messenger RNA), with full encapsulation, partial encapsulation, or both. In a preferred embodiment, the nucleic acid is fully encapsulated in the nanoparticle. In the context of nucleic acid therapeutic agents, full encapsulation may be determined by a Ribogreen® assay. RiboGreen® is an ultra-sensitive fluorescent nucleic acid stain for quantitating oligonucleotides and single-stranded DNA or RNA in solution (available from Thermo Fisher Scientific—US).
Nanoparticles containing compound 3:DOPE:cholesterol:DMG-PEG2k at molar ratios of 1:0.25:0.9625:0.0375 and RNA at two different weight ratios were formulated using NanoAssemblr Benchtop (Precision NanoSystems Inc, Vancouver, BC, Canada)). RNA was diluted with DNase/RNase-Free, endotoxin free distilled water and sterile acetate buffer to a final desired pH. Total flow rate was maintained at 8 mL per min at a 3:1 ratio of aqueous to organic phase for formulating on the Benchtop. Using glassware depyrogenated by heating at 250° C. for 24 h, nanoparticles were dialyzed against sterile, endotoxin-free PBS using 20,000 molecular weight cutoff dialysis. Dialyzed nanoparticles were sterile filtered using 0.2 micron poly(ether sulfone) filters and characterized with a Zetasizer NanoZS machine (Malvern). The size distributions were characterized by a single peak with a low polydispersity index. Encapsulation efficiency was measured to be 95% for the nanoparticle composition containing compound 3 and SEAP mRNA or SEAP replicon RNA (formulated at pH 5) using Ribogreen® assay (Geall et al. 10.1073/pnas.1209367109 which is incorporated herein by reference as if fully set forth).
as §1
as §1, with “8 or compound 9:cholesterol:DOPE DMG-PEG2k” for “8:cholesterol:DOPE:DMG-PEG2k”, “7,000” for “20,000”, “81%” for “89%”, “Luciferase Ψ mRNA” for “Replicon SEAP RNA”, “assay. Encapsulation efficiency was measured to be 82% for the nanoparticle composition containing compound 9 and Luciferase Ψ mRNA (formulated at pH 5). […]” for “assay.”

SEAP expression = test: In vivo SEAP production in mouse serum (Phospha-Light assay); design: species or system mice
[4] = Table 3, DOPE, DMG-PEG 2000 and Luciferase Ψ mRNA
[5] = cholesterol:DOPE:DMG-PEG2k nanoparticles with Luciferase Ψ mRNA
[6] = FIG. 7, DSPC, DMG-PEG 2000 and SEAP Ψ mRNA
[7] = cholesterol:DSPC:DMG-PEG2k 50:38.5:10:1.5 nanoparticles with SEAP Ψ mRNA

In the case of `CCCCCCCCCCCCn1cc(COC(=O)CCN(CCCN(C)CCCNCCCO[C@H]2O[C@@H](COC(C)=O)[C@H](OC(C)=O)[C@@H](OC(C)=O)[C@@H]2OC(C)=O)CCC(=O)OCc2cn(CCCCCCCCCCCC)nn2)nn1` [Compound 6], the Z average ([1]; FIG. 2, hand mixing with cholesterol, pH 5 citrate, 4:1 mass ratio to RNA) is reported as 122.0 nm·days.

In the case of `CCCCCCCCCCCCCCCCOC(=O)CCN(CCCCN(C)CCCNCCCO[C@@H]1O[C@H](COC(C)=O)[C@@H](OC(C)=O)[C@H](OC(C)=O)[C@H]1OC(C)=O)CCC(=O)OCCCCCCCCCCCCCCCC` [Compound 9], the Z average [2, 4] is reported as 80.9 nm·days and the Encapsulation efficiency [3, 5] is reported as 82%.

With `CCCCCCCCCCCCOC(=O)CCSSCCC(=O)NCCCN(C)CCCN(CCC(=O)OCCCCCCCC)CCC(=O)OCCCCCCCC` [Compound 13] the “SEAP expression in mice serum, compound 13 compared to compound 18” value (SEAP expression; FIG. 8, BALB/c mice, approximately 2 μg, SEAP Ψ mRNA nanoparticles formulated at pH 5) was “better SEAP expression”, the Z average [2, 6] was 129.5 nm·days and the Encapsulation efficiency [3, 7] was 89%.

For `CCCCCCCCCCCCOC(=O)CCCCCCC(=O)NCCCN(C)CCCN(CCC(=O)OCCCCCCCC)CCC(=O)OCCCCCCCC` [Compound 18], the Z average [2, 6] was 74.8 nm·days and the Encapsulation efficiency [3, 7] was 84%.

With `CCCCCCCCCCCCCCCCOC(=O)CCN(CCCCN(C)CCCNCCCOP(=O)(OCC)OCC)CCC(=O)OCCCCCCCCCCCCCCCC` [Compound 8] the “Z average (size of strongest intensity)” value ([1]; buffer pH 3) was 133.7 nm·days, the “Z average (size of strongest intensity)” value ([1]; buffer pH 5) was 191.3 nm·days and the Z average ([1]; Table 2, compound 8, cholesterol, microfluidic mixing) was 78.2 nm·days. For the same compound, the polydispersity index ([1]; buffer pH 3) was 0.13, the polydispersity index ([1]; buffer pH 5) was 0.11 and the Z average [2, 4] was 76.5 nm·days. For the same compound, the Encapsulation efficiency [3, 5] was 81% and the Encapsulation efficiency ([3]; compound 8:cholesterol:DOPE:DMG-PEG2k with Replicon SEAP RNA, microfluidic mixing) was 89%.

In the case of `CCCCCCCCCCSSCCCCCCOC(=O)CCN(CCCCN(C)CCCNC(=O)CCCCCCC/C=C\C[C@@H](O)CCCCCC)CCC(=O)OCCCCCCSSCCCCCCCCCC` [Compound 3], the “SEAP protein production in vivo” value (SEAP expression; FIG. 1, SEAP replicon RNA and SEAP mRNA formulated with compound 3) is reported as “resulted in SEAP protein production”, the “SEAP expression in mouse serum, 10:1 versus 15:1 compound 3:RNA” value (SEAP expression; formulations with 10:1 compound 3:RNA, mice, 2 μg SEAP mRNA or SEAP replicon RNA, serum 16 hrs later) is reported as “higher expression” and the Encapsulation efficiency ([3]; nanoparticles compound 3:DOPE:cholesterol:DMG-PEG2k with SEAP mRNA or SEAP replicon RNA) is reported as 95%.
